In the assay the target is Glycogen synthase kinase-3 (Homo sapiens, UniProt P49840+P49841). In words: Inhibition of Glycogen synthase kinase-3. The class given is protein assay.

With `Cc1cc(Nc2nc(-c3ccccc3)nc3ccccc23)no1`, the Ki (usually the equilibrium dissociation constant of an inhibitor or competing ligand from its target) was > 2000 nM. Then `Cc1cc(Nc2cc(-c3ccccc3)nc3ccccc23)[nH]n1`, with 2500 nM. Then `Cc1n[nH]c(Nc2nc(-c3ccccc3)nc3ccccc23)n1`, with 23000 nM.

In the case of `Cc1cnc(Nc2nc(-c3ccccc3)nc3ccccc23)s1`, the Ki is 150 nM.

As to `c1ccc(-c2nc(Nc3cc[nH]n3)c3ccccc3n2)cc1`, the Ki amounted to 110 nM.

Compound `Cc1cc(Nc2nc(-c3ccccc3)nc3ccccc23)n[nH]1` returned a Ki of 24 nM.

`c1ccc(-c2nc(Nc3nc[nH]n3)c3ccccc3n2)cc1` gave a Ki of 250 nM.
